In US5266594A, “Inhibitors of nitric oxide synthase and use thereof to prevent glutamate neurotoxicity” (priority 1992, dated 1993):
Entries after “also recorded” stand apart in the source; their conditions may differ. Read-outs that look alike come from different tables or passages of the source.

System: cortical cell cultures
Assay: cells
Assay type: cell-based, rat
Conditions: for EC50: cortical cultures
Procedure: Primary dissociated cell cultures were prepared from fetal rats (13-to 14-day gestation for cortex and caudate-putamen cultures and 19- to 20-day gestation for hippocampal cultures). The tissue of interest was dissected, incubated for 15 minutes in 0.027% trypsin in Brooks-Logan solution (5% phosphate-buffered saline/0.04M sucrose/10 mM Hepes/0.03M glucose, pH 7.4), and then transferred to modified Eagle's medium (MEM) 10% horse serum/10% fetal bovine serum/2 mM glutamine for trituration. Dissociated cells were plated at a density of 3-4×10^5 cells per well in polyornithine-coated 15-mm multiwell plates. After 4 days the cells were treated with 10 μg of 5-fluoro-2'-deoxyuridine to prevent proliferations of noneuronal cells. Cells were maintained in MEM/5% horse serum/2 mM glutamine in 8% CO2 /humidified atmosphere at 37° C. The medium was changed twice weekly. Mature neurons (3-4 weeks) were used.
Cells were exposed to excitatory amino acids according to the method of Koh and Choi (J. Neurosci. (1988) 8:2153-2163). Before exposure, the cells were washed three times with Tris-buffered control salt solution (CSS), containing 120 mM NaCl/5.4 mM KCl/1.8 mM CaCl2 /25 mM Tris hydrochloride, pH 7.4 at room temperature/15 mM glucose. Brief exposures to glutamate, NMDA (plus 10 μM glycine), quisqualate, and sodium nitroprusside (SNP) were performed for 5 minutes in CSS. The exposure solution was then washed away and replaced by MEM with 21 mM glucose; then the cells were placed in an incubator for 20-24 hour. Long exposures to kainate were performed in MEM/21 mM glucose for 20-24 hour in the incubator. After exposure to the excitatory amino acids, the medium was replaced by CSS/0.4% trypan blue, which stains nonviable cells. Two to four photographs (10-20×) were made of each well, and viable versus nonviable cells were counted. The cytotoxicity data represent 6-24 separate wells assayed per data point, with ≈500-1500 cells counted per well. Neuronal cell injury was also assessed by measuring the release of lactate dehydrogenase by damaged or destroyed cells into the extracellular fluid following drug exposure.
Before initiating cytotoxicity experiments with NOS inhibitors, the potency of NMDA applied for 5 minutes in inducing cell death was evaluated by examining exclusion of 0.4% trypan blue by viable cells or measuring lactate dehydrogenase released by damaged or destroyed cells into the extracellular fluid.
To examine the role of NO in other forms of glutamate neurotoxicity, the effects of NO2 Arg cytotoxicity induced by quisqualate, kainate, and NMDA were compared. […] Data are means ±SEM (n=6-24). Cell death was determined by 0.4% trypan blue exclusion by viable cells.

With `N=C(NCCC[C@H](N)C(=O)O)N[N+](=O)[O-]` [NO2 Arg, L-N^ω -nitroarginine] the “prevention of neurotoxicity, in words” value was “prevent neurotoxicity in proportion to their relative potencies as NOS inhibitors”, the “Cell death, % ± SEM (kainate + NO2 Arg)” value (100 μM kainate +500 μM NO2 Arg) was 87.0 ± 3.2% and the “Cell death, % ± SEM (NMDA + NO2 Arg)” value (300 μM NMDA + 10 μM glycine +100 μM NO2 Arg) was 17.7 ± 3.0%. For the same molecule, the “Cell death, % ± SEM (NMDA + NO2 Arg + L-Arg)” value (300 μM NMDA + 10 μM glycine +100 μM NO2 Arg + 1mM L-Arg) was 63.4 ± 5.5%, the “effect on NMDA cytotoxicity (photomicrographs, FIG. 4)” value (300 μM NMDA plus 10 μM glycine plus 100 NO2 Arg) was “inhibition of NMDA cytotoxicity” and the “Cell death, % ± SEM (glutamate + NO2 Arg + L-Arg)” value (500 μM glutamate +100 μM NO2 Arg + 1 Mm L-Arg) was 48.2 ± 3.2%. The “Cell death, % ± SEM (glutamate + NO2 Arg)” value (500 μM glutamate +100 μN NO2 Arg) was 28.9 ± 6.0%, the “Cell death, % ± SEM (quisqualate + NO2 Arg)” value (500 μM quisqualate +500 μM NO2 Arg) was 51.1 ± 2.4% and the “Cell death, % ± SEM (quisqualate + NO2 Arg + L-Arg)” value (500 μM quisqualate +500 μM NO2 Arg + mM L-Arg) was 66.6 ± 5.3%. The inhibition at 100 µM (Rattus norvegicus, 100 μM NO2 Arg applied simultaneously with NMDA, read-out: reduction of NMDA-induced cell death) was 70%, the EC50 (Rattus norvegicus, NMDA and related excitatory amino acids, read-out: EC50 for preventing neurotoxicity elicited by N-methyl-D-aspartate) was 20 µM and the EC50 (Rattus norvegicus, NMDA, read-out: concentration giving 50% prevention of NMDA-induced cell death) was ~20 µM. For the same molecule, the “protection against kainate-induced cell death” value (kainate) was “no protection against kainate-induced cell death” and the “protection against quisqualate-induced cell death” value (quisqualate) was “A portion of cell death elicited by quisqualate is prevented; also recorded: higher concentrations of NO2 Arg are required than with NMDA toxicity”.
